Test results reported in PubChem BioAssay (NCI).
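48-hour exposure; five concentrations; linearly interpolated endpoints. TGI: total growth inhibition.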

How the values were obtained:
Experiment in all cases: NCI-60 cell line screen, 48 h
[1] = tested on: OVCAR-5 ovarian
[2] = tested on: M14 melanoma
[3] = tested on: UACC-62 melanoma
[4] = tested on: SK-MEL-5 melanoma
[5] = tested on: ACHN renal
[6] = tested on: CCRF-CEM leukemia
[7] = tested on: SF-268 CNS
[8] = tested on: NCI/ADR-RES ovarian
[9] = tested on: RXF 393 renal
[10] = tested on: TK-10 renal
[11] = tested on: HS 578T breast
[12] = tested on: COLO 205 colon
[13] = tested on: OVCAR-4 ovarian
[14] = tested on: MDA-MB-435
[15] = tested on: T-47D breast
[16] = tested on: SK-MEL-28 melanoma
[17] = tested on: MDA-N
[18] = tested on: SK-MEL-2 melanoma
[19] = tested on: NCI-H460 lung
[20] = tested on: SR leukemia
[21] = tested on: MALME-3M melanoma
[22] = tested on: MCF7 breast
[23] = tested on: A549 NSCLC
[24] = tested on: HL-60(TB) leukemia
[25] = tested on: SF-539 CNS
[26] = tested on: MOLT-4 leukemia
[27] = tested on: KM12 colon
[28] = tested on: NCI-H23 lung
[29] = tested on: DU-145 prostate
[30] = tested on: SNB-19 CNS
[31] = tested on: OVCAR-3 ovarian
[32] = tested on: 786-0 renal
[33] = tested on: OVCAR-8 ovarian
[34] = tested on: U251 CNS
[35] = tested on: HCC-2998 colon
[36] = tested on: K-562 leukemia
[37] = tested on: SNB-75 CNS
[38] = tested on: HOP-62 NSCLC
[39] = tested on: UO-31 renal
[40] = tested on: UACC-257 melanoma
[41] = tested on: BT-549 breast
[42] = tested on: HT29 colon
[43] = tested on: SF-295 CNS
[44] = tested on: SN12C renal
[45] = tested on: HCT-15 colon
[46] = tested on: SW-620 colon
[47] = tested on: HCT-116 colon
[48] = tested on: MDA-MB-231 breast
[49] = tested on: PC-3 prostate
[50] = tested on: SK-OV-3 ovarian
[51] = tested on: NCI-H226 lung
[52] = tested on: IGROV1 ovarian
[53] = tested on: EKVX NSCLC
[54] = tested on: LOX IMVI melanoma
[55] = tested on: RPMI-8226 leukemia
[56] = tested on: HOP-92 NSCLC
[57] = tested on: CAKI-1 renal
[58] = tested on: A498 renal
[59] = tested on: NCI-H522 lung

CCOP(=O)(OCC)C(C)(CC)/N=C(\N)NC#N (stereo not given)
TGI [1]: > 100 µM | TGI [2]: > 100 µM | TGI [3]: > 100 µM | TGI [4]: > 100 µM | TGI [5]: > 100 µM | TGI [6]: > 100 µM | TGI [7]: > 100 µM | TGI [8]: > 100 µM | TGI [9]: > 100 µM | TGI [10]: > 100 µM | TGI [11]: > 100 µM | TGI [12]: > 100 µM | TGI [13]: > 100 µM | TGI [14]: > 100 µM | TGI [15]: > 100 µM | TGI [16]: > 100 µM | TGI [17]: > 100 µM | TGI [18]: > 100 µM | TGI [19]: > 100 µM | TGI [20]: > 100 µM | TGI [21]: > 100 µM | TGI [22]: > 100 µM | TGI [23]: > 100 µM | TGI [24]: > 100 µM | TGI [25]: > 100 µM | TGI [26]: > 100 µM | TGI [27]: > 100 µM | TGI [28]: > 100 µM | TGI [29]: > 100 µM | TGI [30]: > 100 µM | TGI [31]: > 100 µM | TGI [32]: > 100 µM | TGI [33]: > 100 µM | TGI [34]: > 100 µM | TGI [35]: > 100 µM | TGI [36]: > 100 µM | TGI [37]: > 100 µM | TGI [38]: > 100 µM | TGI [39]: > 100 µM | TGI [40]: > 100 µM | TGI [41]: > 100 µM | TGI [42]: > 100 µM | TGI [43]: > 100 µM | TGI [44]: > 100 µM | TGI [45]: > 100 µM | TGI [46]: > 100 µM | TGI [47]: > 100 µM | TGI [48]: > 100 µM | TGI [49]: > 100 µM | TGI [50]: > 100 µM | TGI [51]: > 100 µM | TGI [52]: > 100 µM | TGI [53]: > 100 µM | TGI [54]: > 100 µM | TGI [55]: > 100 µM

N#CCN1CCCN(CC#N)CCN(CC#N)CCCN(CC#N)CC1
TGI [1]: > 100 µM | TGI [2]: > 100 µM | TGI [3]: > 100 µM | TGI [4]: > 100 µM | TGI [5]: > 100 µM | TGI [56]: > 100 µM | TGI [6]: > 100 µM | TGI [7]: > 100 µM | TGI [8]: > 100 µM | TGI [9]: > 100 µM | TGI [10]: > 100 µM | TGI [11]: > 100 µM | TGI [12]: > 100 µM | TGI [13]: > 100 µM | TGI [14]: > 100 µM | TGI [15]: > 100 µM | TGI [16]: > 100 µM | TGI [17]: > 100 µM | TGI [18]: > 100 µM | TGI [19]: > 100 µM | TGI [20]: > 100 µM | TGI [21]: > 100 µM | TGI [22]: > 100 µM | TGI [23]: > 100 µM | TGI [24]: > 100 µM | TGI [25]: > 100 µM | TGI [26]: > 100 µM | TGI [27]: > 100 µM | TGI [28]: > 100 µM | TGI [29]: > 100 µM | TGI [30]: > 100 µM | TGI [31]: > 100 µM | TGI [32]: > 100 µM | TGI [57]: > 100 µM | TGI [33]: > 100 µM | TGI [34]: > 100 µM | TGI [58]: > 100 µM | TGI [35]: > 100 µM | TGI [36]: > 100 µM | TGI [37]: > 100 µM | TGI [38]: > 100 µM | TGI [39]: > 100 µM | TGI [40]: > 100 µM | TGI [41]: > 100 µM | TGI [43]: > 100 µM | TGI [44]: > 100 µM | TGI [46]: > 100 µM | TGI [47]: > 100 µM | TGI [48]: > 100 µM | TGI [49]: > 100 µM | TGI [50]: > 100 µM | TGI [51]: > 100 µM | TGI [52]: > 100 µM | TGI [59]: > 100 µM | TGI [54]: 65.8 µM | TGI [55]: > 100 µM

C=C(C)C1CCC2(C(=O)O)CCC3(C)C(CCC4C5(C)CCC(O)C(C)(C)C5CCC43C)C12 (stereo not given)
TGI [1]: 26.1 µM | TGI [2]: 27.7 µM | TGI [3]: 32.2 µM | TGI [4]: 20.3 µM | TGI [5]: 21.1 µM | TGI [56]: 12.4 µM | TGI [6]: 36.5 µM | TGI [7]: 28.7 µM | TGI [8]: 31.5 µM | TGI [9]: 5.99 µM | TGI [10]: 28.9 µM | TGI [11]: 55.7 µM | TGI [12]: 16.6 µM | TGI [13]: 14.7 µM | TGI [14]: 48.4 µM | TGI [15]: 35.5 µM | TGI [16]: 41.8 µM | TGI [17]: 54.9 µM | TGI [18]: 32.2 µM | TGI [19]: 39 µM | TGI [20]: 27.6 µM | TGI [21]: 27.9 µM | TGI [22]: 47.7 µM | TGI [23]: 24.1 µM | TGI [24]: 10.5 µM | TGI [25]: 16.7 µM | TGI [26]: 26.5 µM | TGI [27]: 20.3 µM | TGI [28]: 12.7 µM | TGI [29]: 27.1 µM | TGI [30]: 39.7 µM | TGI [31]: 7.98 µM | TGI [32]: 25.2 µM | TGI [57]: 27.4 µM | TGI [33]: 20.7 µM | TGI [34]: 22 µM | TGI [58]: 20.7 µM | TGI [35]: 24.7 µM | TGI [36]: 27.3 µM | TGI [37]: 33 µM | TGI [38]: 27.6 µM | TGI [39]: 24.5 µM | TGI [40]: 21.8 µM | TGI [41]: 10.9 µM | TGI [42]: 23.9 µM | TGI [43]: 23.6 µM | TGI [44]: 26.1 µM | TGI [45]: 23.5 µM | TGI [46]: 51.5 µM | TGI [47]: 17.5 µM | TGI [48]: 10.7 µM | TGI [49]: 23.8 µM | TGI [50]: 34.2 µM | TGI [51]: 40.9 µM | TGI [52]: 28.7 µM | TGI [53]: 44.9 µM | TGI [59]: 18.2 µM | TGI [54]: 52.8 µM | TGI [55]: 63.5 µM
